Data from patent US12697316B2, “Combination therapy with acetyl-leucine and miglustat” (INTRABIO LTD., priority 2019, dated 2026).

Legend:
Npc1^−/− mice [1] = assay: Accelerating Rotarod motor function in Npc1−/− mice; format: in vivo, mouse; details: Npc1−/− mice treated from 3 weeks, assessed at 8 weeks, vs untreated Npc1−/−
Procedure: The weight and activity of each mouse was recorded weekly until reaching the humane endpoint (defined as a loss of 1 g body weight within 24 h). […] Motor function was measured using an accelerating NG Rota Rod for mice (Ugo Basile) starting from 1 rpm to 10 rpm, accelerating every 30 seconds by one rpm.

Npc1^−/− mice [2] = assay: Survival / life span of Npc1−/− mice; format: in vivo, mouse
Procedure: (§1) BALBc/NPC ^h and Sandhoff mice were bred as heterozygotes to generate affected mice (Npc1^−/−, Hexb^−/−) and controls (Npc^+/+, Hexb^+/+). The mice were housed under non-sterile conditions, with food and water available ad libitum. All experiments were conducted using protocols approved by the UK Home Office Animal Scientific Procedures Act, 1986.
ADLL and enantiomers (ADLL: Molekula #73891210, ALL: Sigma Aldrich #441511, ADL: Sigma #A0876) were administered as dry admix in powdered mouse diet (PicoLab Rodent Diet 20/5053, LabDiet) at a dose of 0.1 g/kg/day for in vivo studies. Treatment groups for in vivo study consisted of at least 5 mice per group. In vitro studies were conducted with each compound dissolved in PBS to generate a 50 mM stock solution and diluted to a 1 mM working concentration in media (DMEM High Glucose-Gibco #10566016).
Miglustat (Monsanto/Oxford GlycoSciences) was administered as a dry solid mixed with powdered chow (600 mg/kg/day) (see above) alone or in combination with ADLL.
(§2) The weight and activity of each mouse was recorded weekly until reaching the humane endpoint (defined as a loss of 1 g body weight within 24 h). Gait analysis was performed using CatWalk 10.5 system (Noldus) according to the manufacturer's instructions and five runs were recorded per animal at each time point. The camera was set to 40 cm below the walkway, the walkway was approximately 4 cm wide, and detection settings set to camera gain 14.05 and green intensity 0.12. Motor function was measured using an accelerating NG Rota Rod for mice (Ugo Basile) starting from 1 rpm to 10 rpm, accelerating every 30 seconds by one rpm. Bar crossing experiments on Sandhoff animals were conducted to measure motor strength and coordination. The apparatus used was modified from published studies. […] Latency to cross or fall from the bar was scored, with 120 sec, maximum, to termination of each trial. […]

Sandhoff (Hexb^−/−) mice [3] = assay: Bar crossing test in Sandhoff (Hexb−/−) mice; format: in vivo, mouse; details: 12 and 13 weeks
Procedure: as §1
ADLL and enantiomers (ADLL: Molekula #73891210, ALL: Sigma Aldrich #441511, ADL: Sigma #A0876) were administered as dry admix in powdered mouse diet (PicoLab Rodent Diet 20/5053, LabDiet) at a dose of 0.1 g/kg/day for in vivo studies. Treatment groups for in vivo study consisted of at least 5 mice per group. […]
The weight and activity of each mouse was recorded weekly until reaching the humane endpoint (defined as a loss of 1 g body weight within 24 h). Gait analysis was performed using CatWalk 10.5 system (Noldus) according to the manufacturer's instructions and five runs were recorded per animal at each time point. […] Motor function was measured using an accelerating NG Rota Rod for mice (Ugo Basile) starting from 1 rpm to 10 rpm, accelerating every 30 seconds by one rpm. […] Latency to cross or fall from the bar was scored, with 120 sec, maximum, to termination of each trial. […]

Sandhoff (Hexb^−/−) mice [4] = assay: Survival of Sandhoff (Hexb−/−) mice; format: in vivo, mouse; details: Hexb−/− mice treated from weaning, 0.1 g/kg/day
Procedure: as §1
[…] Treatment groups for in vivo study consisted of at least 5 mice per group. In vitro studies were conducted with each compound dissolved in PBS to generate a 50 mM stock solution and diluted to a 1 mM working concentration in media (DMEM High Glucose-Gibco #10566016).
as §2, with “rpm.” for “rpm. Bar crossing experiments on Sandhoff animals were conducted to measure motor strength and coordination. The apparatus used was modified from published studies.”

NPC patients = assay: Observational clinical study of adult NPC patients treated with ADLL; format: in vivo, human
Description: Progression of a LSD or one or more symptoms of a LSD over time or through treatment can be monitored, for example, using one or more known tests at two or more time points and comparing the results. Disease progression and/or severity can be assessed, for example, using the Scale for the Assessment and Rating of Ataxia (SARA), Spinocerebellar Ataxia Functional Index (SCAFI), the International Cooperative Ataxia Rating Scale (ICARS), the brief ataxia rating scale (BARS), the modified Disability Rating Scale (mDRS), EuroQol 5Q-5D-5L (EQ-5D-5L), the visual analogue scale (VAS), Wechsler Adult Intelligence Scale-Revised (WAIS-R), Wechsler Intelligence Scale for Children-IV (WISC-IV), Montreal Cognitive Assessment (MoCA) or other suitable tests. For certain LSDs, such as NPC, particular scores have been developed and validated over the last decades, for instance the clinical severity score (CSS) and annual severity increment score (ASIS) (see Yanjanin et al., “Linear Clinical Progression, Independent of Age of Onset, in Niemann—Pick Disease, Type C,” Am J Med Genet Part B 153B:132-140) and the modified 6-Domain NP-C disability Scale (mDRS score). For example, an NPC patient's severity can be quantified by assigning a CSS, which assesses various parameters of the disease (ambulation, seizures, eye movement, etc.) and gives each parameter a score out of 5. A higher score equals a greater severity. The ASIS quantifies the annual rate of change in the CSS, calculated by dividing the CSS by the patient's age. In this regard, certain scores in these tests are characteristic of symptomatic LSD patients and evidence disease progression and/or severity.
Demographics and statistical analysis of a clinical observational study of adult NPC patients treated with ADLL: The cohort comprised 3 females and 10 males. Consent from all participants was obtained. Twelve of the NPC patients were on miglustat therapy (minimum exposure 2.65, 1t^st quartile 3.44, median 4.92, mean 4.87, 3rd quartile 5.80 and maximum 7.98 years). The thirteen NPC1 patients participated in an observational study treated with 5 g/day acetyl-DL-leucine (Tanganil™). Three patients had four prospective clinical severity score measurements and ten patients had five measurements taken during this observational study (NIH, CSS). Retrospective data were used to calculate rates of disease progression prior to recruitment to this study. The mean age at the start of acetyl-DL-leucine (Tanganil™) treatment was 26.59 years. The minimum age was 15.44, 1s^t quartile 20.97, median 26.98 and third quartile 30.79 with maximum age 37.37 years. The time in the observational treatment study was a […], 1st quartile 0.81, median 1, mean 0.95, third quartile 1.13 and maximum 1.21 years.

[5] = number of the 13 treated NPC patients, neurological subdomain

CC(=O)N[C@H](CC(C)C)C(=O)O [ADL, N-acetyl-D-leucine]
Rotarod performance (Npc1^−/− mice [1]): no significant benefit
increase in life span (Npc1^−/− mice [2]; Npc1−/− mice treated from weaning, 0.1 g/kg/day, relative to untreated Npc1−/−): not changed

CC(=O)NC(CC(C)C)C(=O)O (racemic) [ADLL, N-acetyl-DL-leucine]
Bar-crossing test performance (Sandhoff (Hexb^−/−) mice [3]): significantly improved
Rotarod performance (Npc1^−/− mice [1]): significant improvement
median increase in lifespan (Sandhoff (Hexb^−/−) mice [4]): 8 days
mean change in Annual Severity Increment Scores (ASIS) (NPC patients; 13 NPC patients): −9.1 %/year
average slope of disease progression (total clinical severity score) following initiation of treatment (NPC patients; 13 adult NPC patients, 5 g/day, 12 also on miglustat, average slope before treatment 1.8): −1.78 severity units/year
Ambulation: Deteriorated (NPC patients; [5]): 1
Ambulation: Improved (NPC patients; [5]): 8
Ambulation: Stable (NPC patients; [5]): 4
Cognition: Deteriorated (NPC patients; [5]): 1
Cognition: Improved (NPC patients; [5]): 6
Cognition: Stable (NPC patients; [5]): 6
Eye movement: Deteriorated (NPC patients; [5]): 1
Eye movement: Improved (NPC patients; [5]): 8
Eye movement: Stable (NPC patients; [5]): 4
Fine motor skills: Deteriorated (NPC patients; [5]): 2
Fine motor skills: Improved (NPC patients; [5]): 8
Fine motor skills: Stable (NPC patients; [5]): 3
Memory: Deteriorated (NPC patients; [5]): 1
Memory: Improved (NPC patients; [5]): 10
Memory: Stable (NPC patients; [5]): 2
Speech: Deteriorated (NPC patients; [5]): 3
Speech: Improved (NPC patients; [5]): 3
Speech: Stable (NPC patients; [5]): 7
Swallow: Deteriorated (NPC patients; [5]): 1
Swallow: Improved (NPC patients; [5]): 10
Swallow: Stable (NPC patients; [5]): 2
patients with negative slopes following initiation of treatment (NPC patients; of 13 NPC patients): 10
patients with no slope following initiation of treatment (NPC patients; of 13 NPC patients): 3
median survival (Npc1^−/− mice [2]; Npc1−/− mice, ADLL 0.1 g/kg/day, miglustat 600 mg/kg/day in chow, untreated Npc1−/− 87 days): 91 days

CC(=O)N[C@@H](CC(C)C)C(=O)O [ALL, N-acetyl-L-leucine]
Rotarod performance (Npc1^−/− mice [1]): significant improvement
